Data published in patent US11753430B2, “Method of making cobalt compounds for feed supplements” (Vitalix, Inc., priority 2021, dated 2023).

Experiment: surface area of crystals formed with and without sonication
Format: physicochemical
Description: The method can also include a step of forming a premix, including the substeps of adding, after the step of dissolving, gluconic acid to provide an almost 1:1 premix mixture of cobalt acetate and cobalt gluconate compounds, and then sonicating the premix mixture. The premix remained in solution at 15° C. for over ten days. When additional gluconic acid (1.1 eq of total gluconic acid to acetic acid) was added, and gently mixed, within a half hour precipitation of very fine cobalt gluconate crystals occurred.

**Q.** For cobalt gluconate, which “surface area relative to that observed with sonication” value is on record?
**A.** less than 20 times
